Assay results as given in patent US9814706B2, “Hydrobromide salt of pridopidine” (Teva Pharmaceuticals International GmbH, priority 2011, dated 2017).
Where a name gives a salt, the structure may show the parent alone. Read-outs that look alike come from different tables or passages of the source.

Conditions: for hygroscopicity / deliquescence by DVS profile (in words): hydrobromide salt
Procedure: DVS analysis was performed on two of the HCl salts of pridopidine (HCl salt of pridopidine batches A and B). A full two cycle sorption and desorption profile was obtained for a third HCl salt of pridopidine (hydrochloride salt of pridopidine batch C).
An additional run was performed in the mid-eighties relative humidity range in order to indentify the transition point in more detail. (See FIG. 9). […] Dynamic vapour sorption (DVS) measurements were conducted using a Q5000 SA from TA instruments.
Prior to the first sorption cycle the sample was equilibrated at 20% RH and the initial weight recorded. Samples were analyzed in an aluminium pan. Humidity was brought down to 0% RH and the sample dried until the weight had stabilized within a given limit. The temperature was held constant at 25° C. Maximum step time was 720 min. Gas flow was 200 cm^3/min.

Row | Structure (SMILES) | weight gain at 90% relative humidity (DVS) (90% RH step, first sorption cycle) | state of specimen at the end of the DVS cycle (additional run with smaller steps in the mid-eighties RH range (80-90-80%)) | weight gained between 0 and 95% RH (DVS), lost again during desorption (0-95% RH, two sorption/desorption cycles, 25° C.) | hygroscopicity / deliquescence by DVS profile (in words) (0-95% RH) | hygroscopicity / deliquescence by DVS profile (in words) (0-95% RH, listed as NS30016-HBr salt) | weight gained at the 95% relative humidity (RH) level (DVS) (95% RH, 25° C.)
1 | CCCN1CCC(c2cccc(S(C)(=O)=O)c2)CC1 [hydrochloride salt of pridopidine, hydrochloride salt of 4-(3-methanesulfonyl-phenyl)-1-propyl-piperidine, reference compound] | approximately 80% | completely dissolved |  |  |  | 
2 | Br.CCCN1CCC(c2cccc(S(C)(=O)=O)c2)CC1 [Pridopidine hydrobromide, 4-(3-methanesulfonyl-phenyl)-1-propyl-piperidine hydrobromide salt] |  |  | approximately 0.15% | non-hygroscopic and non-deliquescent | non-hygroscopic | less than 1%
